The conditions of data set [1]: Liquid; for self diffusion coefficient: NMR.
Data set [2] is described as follows: xn = mol fraction of the nth substance listed. To be noted: 343.15 K, Liquid; for viscosity: Oscillating piston [Cambridge Applied Systems Model]; for molar volume: High-pressure cell with syringe pump.

Numbers after ± are expanded uncertainties.

Take `CCCCCC[n+]1ccn(C)c1.O=S(=O)([N-]S(=O)(=O)C(F)(F)F)C(F)(F)F`: the self diffusion coefficient in data set [1] (298.15 K, 100 kPa) was found to be 1.79e-11 m2/s; in data set [1] (323.15 K, 100 kPa), 5.54e-11 m2/s; in data set [1] (343.15 K, 100 kPa) it was 1.07e-10 m2/s. Further, the viscosity in data set [1] (343.15 K, 100 kPa, Oscillating piston [Cambridge Applied Systems Model]) stood at 14.07 ± 0.35 mPa·s.
Regarding `CCCCCC[n+]1ccn(C)c1.O=S(=O)([N-]S(=O)(=O)C(F)(F)F)C(F)(F)F` + FCC(F)(F)F, the viscosity in data set [2] (100 kPa, x2 = 0) is recorded as 14.07 ± 0.35 mPa·s.
For the molecule `FCC(F)(F)F` [1,1,1,2-tetrafluoroethane], the self diffusion coefficient in data set [1] (298.15 K, 670 kPa) is 5.95e-09 m2/s.
Consider `FCC(F)(F)F` [1,1,1,2-tetrafluoroethane] + CCCCCC[n+]1ccn(C)c1.O=S(=O)([N-]S(=O)(=O)C(F)(F)F)C(F)(F)F, for which the molar volume in data set [2] (84 kPa, x1 = 0.0397) was determined as 0.0003358 ± 3.2e-06 m3/mol; in data set [2] (212 kPa, x1 = 0.1086), 0.0003159 ± 2.8e-06 m3/mol; in data set [2] (395 kPa, x1 = 0.1956), 0.0002928 ± 2.6e-06 m3/mol; in data set [2] (615 kPa, x1 = 0.2904) it was 0.0002669 ± 2.2e-06 m3/mol; in data set [2] (971 kPa, x1 = 0.4272) it was 0.0002313 ± 1.8e-06 m3/mol; in data set [2] (1320 kPa, x1 = 0.5508) it was 0.0001984 ± 1.4e-06 m3/mol. The molar volume in data set [2] (1732 kPa, x1 = 0.6867) is given as 0.0001653 ± 1e-06 m3/mol; in data set [2] (1956 kPa, x1 = 0.777), 0.0001436 ± 8e-07 m3/mol; in data set [2] (2016 kPa, x1 = 0.8075), 0.0001367 ± 6e-07 m3/mol; in data set [2] (2064 kPa, x1 = 0.8427), 0.0001289 ± 6e-07 m3/mol; in data set [2] (2075 kPa, x1 = 0.8572), 0.0001265 ± 4e-07 m3/mol. In addition, the viscosity in data set [2] (310 kPa, x1 = 0.148) came to 12.62 ± 0.31 mPa·s; in data set [2] (610 kPa, x1 = 0.276), 11.97 ± 1.3 mPa·s; in data set [2] (850 kPa, x1 = 0.364), 9.33 ± 1.6 mPa·s; in data set [2] (1130 kPa, x1 = 0.459) it was 8.09 ± 0.18 mPa·s; in data set [2] (1470 kPa, x1 = 0.575) it was 7.06 ± 0.3 mPa·s; in data set [2] (2030 kPa, x1 = 0.813), 3.24 ± 0.07 mPa·s.

By viscosity is commonly meant the internal friction of a fluid under shear.

The record behind these values is the NIST ThermoML archive (doi:10.1016/j.fluid.2016.11.022).
